One molecule from patent EP0958822A1, “THE OCULAR HYPOTENSIVE ACTIVE COMPOSITIONS” (Lin, Tongho, priority 1996, dated 1998) can be followed below.

This experiment concerns New Zealand albino rabbits. The experiment is described as follows: IOP recovery after hypertonic saline infusion (ocular hypertensive rabbit model). Format: in vivo. The note with it: 50 µl instilled in eye. As to the method:
1981, vol 13 pp72-79. New Zealand albino rabbits of either sex were used in the study. A 20 % hypertonic saline solution was infused at the speed of 1 ml […] for 10 minutes through the marginal ear vein with an infusion pump. […] Then the IOP of both eyes were measured with a Tono-Pen XL Tonometer (Mentor, Norwell , MA) at 30 minute and 10 minute intervals before the experiment. At the time of commencement, as well as at 10, 20, 40, 60, and 80 min intervals measurements were taken. Then measurements were repeated at every 30 minute intervals. […] The IOP recovery curve acquired had shifted to the right and below the curve of the controlled group.

Each structure is given as a SMILES string.

Take `CCN1CCCC1CNC(=O)c1cc(S(N)(=O)=O)ccc1OC` (centres unmarked) [Sulpiride]: for the setting “0.5% drop solution, 20 % hypertonic saline infusion”, the IOP recovery time entry was “didn't show a significant ability in decreasing IOP”. The “decreasing IOP” value (20% drop solution) is “it did so when the concentration was raised to 20%”.
